In PubChem BioAssay (NCI):
“And” between values parts separate entries of the source, which are not always exact repeats. Equal entries are not always repeated.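 Test compounds were applied to cells in 96-well plates for 48 hours at 5 doses. Here, GI50 denotes the concentration required for 50% inhibition of growth. Definition used: TGI = concentration required for complete inhibition of growth.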

How the values were obtained:
Assay in all cases: NCI tumour cell line growth inhibition, 48 h
SN12C renal = test system: SN12C renal
KM12 colon = test system: KM12 colon
COLO 205 colon = test system: COLO 205 colon
SK-OV-3 ovarian = test system: SK-OV-3 ovarian
IGROV1 ovarian = test system: IGROV1 ovarian
SK-MEL-5 melanoma = test system: SK-MEL-5 melanoma
SW-620 colon = test system: SW-620 colon
RPMI-8226 leukemia = test system: RPMI-8226 leukemia
HOP-62 NSCLC = test system: HOP-62 NSCLC
HS 578T breast = test system: HS 578T breast

SMILES	TGI (SN12C renal)	TGI (KM12 colon)	TGI (COLO 205 colon)	TGI (SK-OV-3 ovarian)	TGI (IGROV1 ovarian)	TGI (SK-MEL-5 melanoma)	TGI (SW-620 colon)	TGI (RPMI-8226 leukemia)	TGI (HOP-62 NSCLC)	GI50 (KM12 colon)	TGI (HS 578T breast)	GI50 (SW-620 colon)	GI50 (SN12C renal)	GI50 (COLO 205 colon)	GI50 (SK-OV-3 ovarian)	GI50 (IGROV1 ovarian)	GI50 (RPMI-8226 leukemia)	GI50 (HOP-62 NSCLC)	GI50 (HS 578T breast)	GI50 (SK-MEL-5 melanoma)
CC(O)c1ccc(C(O)/C(=N\NC(=O)c2ccncc2)c2nc3ccc([N+](=O)[O-])cc3[nH]c2=O)cc1 (stereo not given)	> 100 µM	> 100 µM	> 100 µM	> 100 µM	> 100 µM	> 100 µM	> 100 µM	> 100 µM	> 100 µM											
O=C(CC1(O)C(=O)Nc2ccc([N+](=O)[O-])cc21)c1ccc(Br)cc1 (stereo not given)	> 100 µM	> 100 µM	> 100 µM	> 100 µM				> 100 µM	> 100 µM											
c1ccc(N2N=NC3C4CC(C5c6ccccc6C45)C32)cc1 (stereo not given)	> 100 µM	> 100 µM	> 100 µM	> 100 µM	> 100 µM	38.3 µM	> 100 µM	> 100 µM	> 100 µM											
CN(CCCCN)c1ccc2c(=O)[nH][nH]c(=O)c2c1	> 100 µM	> 100 µM	> 100 µM	> 100 µM	> 73.6 µM		> 100 µM	> 100 µM	> 100 µM											
O=C(O)c1ccccc1C1c2ccc(Cl)cc2Oc2cc(Cl)ccc21	> 100 µM	> 100 µM	> 100 µM	> 100 µM	> 100 µM	> 100 µM	> 100 µM	> 100 µM	> 100 µM											
CCOC(=O)Cn1c(=O)[nH]c(=O)c2[nH]cnc21	> 100 µM	> 100 µM	> 100 µM	> 100 µM	> 100 µM	> 100 µM	> 100 µM		> 100 µM											
COC(=O)c1cc2c(nc1C)-c1ccccc1OS2(=O)=O	> 100 µM	> 100 µM	> 100 µM	> 100 µM	> 100 µM	> 100 µM	> 100 µM	> 100 µM	67.8 µM											
COC1C(C)OC(OC2CC(C)(O)Cc3cc4c(c(O)c32)C(=O)c2c(O)cc3c(c2C4=O)OC2OC3(C)C(O)C(N(C)C)C2O)C(OC)C1(C)OC (stereo not given)	6.12 µM and 6.56 µM			1.52 µM and 10.7 µM	3.47 µM and 5.05 µM		2.84 µM and 2.41 µM		0.921 µM and 0.347 µM	0.0639 µM and 0.0289 µM	0.000563 µM	0.038 µM and 0.024 µM								
c1cnc2nc3n(c2c1)CSC3	> 100 µM	> 100 µM	> 100 µM	> 100 µM	> 100 µM	> 100 µM	> 100 µM	> 100 µM	> 100 µM											
CC(C)=Cc1cc(C(=O)NCCNC(=O)c2cc(C=C(C)C)nc(NC#N)n2)nc(NC#N)n1	> 100 µM	> 100 µM	> 100 µM	> 100 µM	> 100 µM	> 100 µM	> 100 µM	> 100 µM	> 100 µM											
Cc1ccc(S(=O)(=O)OC2CSSCC2OS(=O)(=O)c2ccc(C)cc2)cc1 (stereo not given)	24 µM	28.3 µM	26.6 µM	38.4 µM	32.9 µM	29.7 µM	29.6 µM	46.3 µM	43.2 µM											
C1=CC(=NN=P(c2ccccc2)(c2ccccc2)c2ccccc2)C=C1	> 100 µM	> 100 µM	> 100 µM	> 100 µM	> 100 µM	> 100 µM	> 100 µM	> 100 µM	> 100 µM											
O=[P+](O)c1cccnc1	> 100 µM	> 100 µM	> 100 µM	> 100 µM	> 100 µM	> 100 µM	> 100 µM	> 100 µM	> 100 µM											
COC(=O)Cc1nn2c(nc1=O)sc1ccc3ccccc3c12	> 100 µM	> 100 µM	> 100 µM	> 100 µM	> 100 µM	> 100 µM	> 100 µM		> 100 µM											
C=CNC(=S)n1nc(-c2ccccc2NC(=O)C(F)(F)F)c(=O)n(C(=S)NC=C)c1=S	> 100 µM	> 100 µM		73 µM	> 100 µM	35.5 µM	> 100 µM		86 µM											
COC(=O)C1=Cc2cn(S(=O)(=O)c3ccc(C)cc3)c3cccc(c23)C(C=C(C)C)N1C(C)=O (stereo not given)	> 100 µM	> 100 µM	18.3 µM	> 100 µM	> 100 µM	> 100 µM	> 100 µM		> 100 µM											
CSCC(COC(C)=O)(CSC)c1ccncc1	> 100 µM	> 100 µM	> 100 µM	> 100 µM	> 100 µM	> 100 µM	> 100 µM	> 100 µM	> 100 µM											
Cn1c2c(c3ccccc31)CCN(CCCN1CCN(c3ccccc3)CC1)C2=O	46.7 µM		37 µM	37 µM	38 µM	42.1 µM	55.7 µM	36.7 µM												

SMILES	TGI (SN12C renal)	TGI (KM12 colon)	TGI (COLO 205 colon)	TGI (SK-OV-3 ovarian)	TGI (IGROV1 ovarian)	TGI (SK-MEL-5 melanoma)	TGI (SW-620 colon)	TGI (RPMI-8226 leukemia)	TGI (HOP-62 NSCLC)	GI50 (KM12 colon)	TGI (HS 578T breast)	GI50 (SW-620 colon)	GI50 (SN12C renal)	GI50 (COLO 205 colon)	GI50 (SK-OV-3 ovarian)	GI50 (IGROV1 ovarian)	GI50 (RPMI-8226 leukemia)	GI50 (HOP-62 NSCLC)	GI50 (HS 578T breast)	GI50 (SK-MEL-5 melanoma)
CCOC(=O)CP(=S)(S)c1ccccc1 (stereo not given)	> 100 µM	> 100 µM	> 100 µM	> 100 µM		> 100 µM	> 100 µM		> 100 µM											
C[C@H]1CCC2C(CN3CCCCC3)C(=O)OC2[C@]2(C)C(=O)CC(N3CCCCC3)C12O (stereo not given in full)	14.8 µM	12.3 µM	18.6 µM	79.9 µM	84.1 µM	16.3 µM	10.3 µM													
Cc1cc(C)c(C(=O)/C(=C/c2ccccc2)c2ccccc2)c(C)c1	> 100 µM	> 100 µM	> 100 µM	> 100 µM	> 100 µM	> 100 µM	> 100 µM	> 100 µM	> 100 µM											
Cc1cc(C)c(C2=NO[C@@H]3C(=O)N(c4ccc(Cc5ccc(N6C(=O)[C@H]7C(c8c(C)cc(C)cc8C)=NO[C@H]7C6=O)cc5)cc4)C(=O)[C@H]23)c(C)c1	> 100 µM	> 100 µM	> 100 µM	> 100 µM	> 100 µM	> 100 µM	> 100 µM	> 100 µM	> 100 µM											
CCCCC1N=CNc2c1ccc1c2[nH]c2ccccc21 (stereo not given)	7.8 µM	41.8 µM	3.27 µM	11.3 µM	8.18 µM	2.95 µM	3.55 µM	5.13 µM	9.97 µM											
O=Cc1cn(S(=O)(=O)c2ccccc2)c2ccccc12	> 100 µM	> 100 µM		> 100 µM	> 100 µM		> 100 µM	59.3 µM	> 100 µM											
C1C[S][Ge]2([S]CCS1)[S]CCSCC[S]2	> 100 µM		> 100 µM	> 100 µM	> 100 µM			> 100 µM	> 100 µM				> 100 µM	> 100 µM	> 100 µM	> 100 µM	> 100 µM	> 100 µM		
Cc1nc(-n2nc(-c3ccccc3)cc2-c2ccccc2)sc1C(/C=C/c1ccc([N+](=O)[O-])cc1)=N/NC(N)=S	> 100 µM	> 100 µM	> 100 µM	> 100 µM	> 100 µM	> 100 µM		45 µM	65.7 µM											
O=c1[nH]c(-c2ccc([N+](=O)[O-])cc2)nc2ccc(Cl)cc12	> 100 µM	> 100 µM	> 100 µM	> 100 µM	> 100 µM	> 100 µM	> 100 µM	> 100 µM												
C/C(CC(=O)Nc1ccc([N+](=O)[O-])cc1)=N\Nc1ccc([N+](=O)[O-])cc1[N+](=O)[O-]		> 100 µM	> 100 µM	> 100 µM	> 100 µM	> 100 µM	> 100 µM	> 100 µM	> 100 µM											
CN(CC1NCCCC1O)C12CC3CC(CC(C3)C1)C2 (stereo not given)	> 100 µM	> 100 µM	> 100 µM	> 100 µM	> 100 µM		> 100 µM	> 100 µM	> 100 µM											
O=C1CCCCCCCCCCOC(=O)CCCCCCCCCCO1	> 100 µM	> 100 µM	> 100 µM	> 100 µM	> 100 µM	> 100 µM	> 100 µM		> 100 µM											
C/C(CC(=O)Nc1cccc(C)c1C)=N\NC(N)=S	> 100 µM	> 100 µM	> 100 µM	> 100 µM	> 100 µM	> 100 µM		> 100 µM	> 100 µM											
C=C1CCC2(C(C)=O)COC1(C)O2 (stereo not given)	> 100 µM	> 100 µM	> 100 µM	> 100 µM	> 100 µM	> 100 µM	> 100 µM	> 100 µM	> 100 µM											
COc1cc(-c2ccc(=O)oc2C#Cc2ccccc2)cc(OC)c1OC	> 100 µM	> 100 µM	> 100 µM	92.9 µM		> 100 µM	> 100 µM		66.8 µM	34.6 µM	48.4 µM	13.3 µM	15.9 µM	34.1 µM	28.5 µM			19 µM	6.02 µM	3.49 µM
COc1cc(=O)oc(/C=C/CO)c1C	> 100 µM	> 100 µM	> 100 µM	> 100 µM	> 100 µM	> 100 µM	> 100 µM		> 100 µM											
C=CCn1c(=O)c(C(=O)NC(=O)OCC)cn(C2CCCCC2)c1=O	> 100 µM	> 100 µM	> 100 µM	> 100 µM	> 100 µM	> 100 µM	> 100 µM	> 100 µM	> 100 µM											
